According to patent publication US4870207A, “Synthesis of arphamenine A” (Zaiden Hojin Biseibutsu Kagaku Kenkyu Kai, priority 1983, dated 1989):
Like-named read-outs stand apart in the source and are kept apart here.

Assays:
[1] = test system: Delayed-Type Hypersensitivity (D.T.H.); assay: Delayed-Type Hypersensitivity (D.T.H.) technique, cell-mediated immunopotentiating activity; type: in vivo
From the text: Accordingly, they are useful as an immunopotentiating agent.

aminopeptidase B = target: T1, aminopeptidase B (Rattus norvegicus, UniProt O09175); assay: Aminopeptidase B-inhibitory activity; type: biochemical; settings: modification of the method of Hoppusu
T1 sequence (O09175 1-650): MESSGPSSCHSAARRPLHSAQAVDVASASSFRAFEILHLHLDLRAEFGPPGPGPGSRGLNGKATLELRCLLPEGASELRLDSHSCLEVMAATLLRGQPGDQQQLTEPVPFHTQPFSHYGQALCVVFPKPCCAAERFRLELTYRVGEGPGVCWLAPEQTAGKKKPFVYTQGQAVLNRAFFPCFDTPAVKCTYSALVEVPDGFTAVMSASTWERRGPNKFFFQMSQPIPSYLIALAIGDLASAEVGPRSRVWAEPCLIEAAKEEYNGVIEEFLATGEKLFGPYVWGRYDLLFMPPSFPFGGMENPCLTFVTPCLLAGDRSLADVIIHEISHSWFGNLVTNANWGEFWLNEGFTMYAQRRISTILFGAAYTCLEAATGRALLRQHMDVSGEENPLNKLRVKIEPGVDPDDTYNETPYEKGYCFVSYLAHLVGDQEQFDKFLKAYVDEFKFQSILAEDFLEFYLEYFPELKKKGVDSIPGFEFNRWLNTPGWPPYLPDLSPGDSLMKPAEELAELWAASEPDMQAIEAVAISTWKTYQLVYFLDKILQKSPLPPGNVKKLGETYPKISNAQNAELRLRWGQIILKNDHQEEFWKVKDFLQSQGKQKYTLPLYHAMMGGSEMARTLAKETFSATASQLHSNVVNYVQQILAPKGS
Method: The aminopeptidase B-inhibitory activities (IC50) described above were determined by a modification of the method of Hoppusu disclosed in the specification of U.S. Pat. No. 4,595,698.

[2] = background statement, see U.S. Pat. No. 4,595,698; cited from earlier work
[3] = background statement, see U.S. Pat. No. 4,595,698; cited from earlier work; remark: listed apart in the source

IC50 (aminopeptidase B) [nM]	SMILES	cell-mediated immunopotentiating activity [1]	cell-mediated immunopotentiating activity ([1]; listed as (Ia))	immunopotentiating activity [2]	analgesic activity [3]
	N=C(N)NCCC[C@H](N)C(=O)C[C@H](Cc1ccccc1)C(=O)O [Substance (I"), epi-arphamenine A]	exhibit a cell-mediated immunopotentiating activity			
21.8	N=C(N)NCCC[C@H](N)C(=O)C[C@@H](Cc1ccccc1)C(=O)O [Substance (I'), arphamenine A]		exhibit a cell-mediated immunopotentiating activity		
15.6	N=C(N)NCCC[C@H](N)C(=O)C[C@@H](Cc1ccccc1)C(=O)O [naturally occuring arphamenine A, arphamenine A]			shows an immunopotentiating activity	an analgesic activity
